Assay results reported in patent publication US20230382889A1 (Volastra Therapeutics, Inc., priority 2022, published 2023).
pIC50, pKi: −log10 of the molar value.

Tests used:
hKIF18A (1-374) = hKIF18A (1-374) (Homo sapiens (Human), UniProt Q8NI77); experiment: Inhibition of KIF18A microtubule-dependent ATPase activity (ADP-Glo); format: biochemical; settings: 4 nM hKIF18A (1-374)
In short: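 Reaction was started with pre-formed microtubules and ATP (0.2 mg/mL and 2.0 mM in the added mix) and run 60 min at 28 °C. ADP was read by ADP-Glo luminescence, and IC50 came from a four-parameter fit of % inhibition.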

[1] = molecular target: KIF18a-microtubule complex (Homo sapiens (Human), UniProt Q8NI77); experiment: Binding kinetics to KIF18a-microtubule complex (global progress curve analysis)
KIF18a-microtubule complex, sequence (Q8NI77 1-374, one chain of several): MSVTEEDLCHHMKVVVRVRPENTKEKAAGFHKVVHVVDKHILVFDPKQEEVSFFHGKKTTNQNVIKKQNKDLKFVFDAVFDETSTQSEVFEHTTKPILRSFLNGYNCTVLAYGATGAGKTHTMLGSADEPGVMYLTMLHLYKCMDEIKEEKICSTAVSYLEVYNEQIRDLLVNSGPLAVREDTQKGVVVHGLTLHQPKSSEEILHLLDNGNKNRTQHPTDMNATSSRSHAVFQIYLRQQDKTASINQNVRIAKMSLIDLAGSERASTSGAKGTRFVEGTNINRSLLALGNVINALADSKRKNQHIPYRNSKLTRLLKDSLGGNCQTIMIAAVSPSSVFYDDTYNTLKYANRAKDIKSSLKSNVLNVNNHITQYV
Procedure: Compound binding kinetics parameters (kon and koff) were determined by the method of global progress curve analysis (GPCA). […] ADP product levels were determined by the Promega® ADP-Glo assay.

HCC15 cells = experiment: Cell viability of KIF18a-sensitive cell lines, HCC15 (Cell Titre-Glo, 7 days); format: cell-based; settings: 168 h; HCC15, 7 days; read-out: HCC15 IC50
JIMT-1 cells = experiment: Cell viability of KIF18a-sensitive cell lines, JIMT-1 (Cell Titre-Glo, 7 days); format: cell-based; settings: Homo sapiens, 168 h; JIMT-1, 7 days; read-out: JIMT-1 IC50
NIH:OVCAR-3 cells = experiment: Cell viability of KIF18a-sensitive cell lines, NIH:OVCAR-3 (Cell Titre-Glo, 7 days); format: cell-based; settings: Homo sapiens, OVCAR-3, 168 h; NIH:OVCAR3, 7 days; read-out: NIH:OVCAR3 IC50
OVCAR-3 tumor cells = experiment: In vivo activity, OVCAR-3 xenograft tumor growth inhibition; settings: OVCAR3 model, Balb/C nude mice, FIG. 1
Procedure: (§1) OVCAR-3 (ATCC) tumor cells were maintained in vitro in RPMI-1640 medium supplemented with 20% fetal bovine serum, 0.01 mg/mL bovine insulin and 1% Anti-Anti at 37° C. in an atmosphere of 5%/CO2 in air. HCC15 (DSMZ) tumor cells were maintained in vitro in RPMI 1640 medium supplemented with 10% fetal bovine serum and 1% Anti-Anti at 37° C. in an atmosphere of 5% CO2 in air.
(§2) The tumor cells were sub-cultured twice weekly. The cells growing in an exponential growth phase were harvested and counted for tumor inoculation.
(§3) Tumor cells (10×106) in 0.2 mL of PBS mixed with Matrigel (50:50) were inoculated subcutaneously on the right flank of each mouse. When the average tumor volume reached 110-175 mm^3, animals were randomized into groups of 10 and treatment started. OVCAR-3 cells were implanted in Balb/C nude mice, and HCC15 cell were implanted in SCID Beige mice.
(§4) Compounds were dosed once or twice a day (12 h) orally. Tumor Growth Inhibition (TGI) was calculated using the formula: TGI (%)=[1−(TN−T0)/(VN−V0)]×100; TN is the average tumor volume of a treatment group at the indicated timepoint, T0 is the average tumor volume of the treatment group on treatment day 0, VN is the average tumor volume of the vehicle control group at the indicated timepoint, and V0 is the average tumor volume of the vehicle group on treatment day 0. P value was calculated based on tumor size by One-Way ANOVA with GraphPad Prism 9.4.0 compared with the vehicle group, respectively. **** indicates p<0.0001.
(§5) The tumor volume of vehicle- and compound-treated mice as a function of time after start of treatment and the results of treatments with selected compounds on SCID Beige mice or nude mice implanted with HCC15 or OVCAR-3 are shown in FIGS. 1 and 2. The TGI calculated for treatments with selected compounds are shown in Table 11.

HCC15 tumor cells = experiment: In vivo activity, HCC15 xenograft tumor growth inhibition; settings: HCC15 model, SCID Beige mice, FIG. 2
Procedure: as §1, §2, §3, §4, §5

hKIF18A (1-374), sequence (Q8NI77 1-374): as the sequence (Q8NI77 1-374, one chain of several) above

pIC50 (hKIF18A (1-374)): 7.72
kon (on-rate from binding kinetics assay) ([1]; KIF18A 0.25 nM, up to 24 hr): 14400 M⁻¹ s⁻¹
koff ([1]; KIF18A 0.25 nM, up to 24 hr, read-out: koff (off-rate from binding kinetics assay) (converted)): 2.78e-06 s⁻¹
pKi ([1]; koff/kon, read-out: KI (determined from binding kinetic assay koff/kon)): 9.70
disc. t1/2 (dissociation half-life ln(2)/koff) ([1]; ln(2)/koff): 68 h
pIC50 (HCC15 cells): 8.04
pIC50 (NIH:OVCAR-3 cells): 7.89
Compound: Cc1cc(-c2cn(-c3ccc(NS(=O)(=O)CCO)cc3N3CCC4(CC3)CC4)nn2)nc(N2CCC(F)(F)CC2)n1 [Compound 47, N-(4-(4-(2-(4,4-difluoropiperidin-1-yl)-6-methylpyrimidin-4-yl)-1H-1,2,3-triazol-1-yl)-3-(6-azaspiro[2.5]octan-6-yl)phenyl)-2-hydroxyethane-1-sulfonamide]
pIC50 (JIMT-1 cells): 7.80
TGI (OVCAR-3 tumor cells; 3 mg/kg QD PO): 44 ± 11%
TGI (OVCAR-3 tumor cells; 10 mg/kg QD PO): 119 ± 1%
TGI (OVCAR-3 tumor cells; 30 mg/kg QD PO): 120 ± 1%
TGI (HCC15 tumor cells; 3 mg/kg QD PO): 64 ± 7%
TGI (HCC15 tumor cells; 10 mg/kg QD PO): 83 ± 4%
TGI (HCC15 tumor cells; 30 mg/kg QD PO): 87 ± 4%
